# System: HepG2^AKO cells
# Assay: Seahorse cellular respiration (OCR) in ATGL knockout cells
# Assay type: cell-based, human
# Details: NG-497 40 μM, galactose medium
# Experimental: (a) HepG2 cells were treated with NG-497 (40 μM) or DMSO as control and oxygen consumption rate (OCR) was determined in Seahorse growth medium supplemented with glucose (25 mM) using the SeaHorse XF96 extracellular flux analyzer. OCR was determined after subsequent addition of 1 μM Oligomycin (ATP-synthase inhibitor), 1 μM FCCP (uncoupler), and 1 μM antimycin/rotenone (electron transport chain inhibitors). (b) Statistical analysis of basal respiration (BR), maximal respiration (MR), proton leak (PL), ATP production (ATPP), spare respiratory capacity (SRC), and nonmitochondrial oxygen consumption (NMOC) of control and NG-497-treated cells. (c) Extracellular acidification rate (ECAR) and (d) OCR of HepG2 cells were determined in Seahorse growth medium supplemented with glucose (25 mM) or galactose (10 mM). […] Growth of cells expressing (HepG2^control) or lacking functional ATGL (HepG2^AKO) was determined using a BioRad cell analyzer. ATGL expression was analyzed by Western blotting analysis using an anti-ATGL antibody and GAPDH as a loading control (inset). (h) Acylglycerol content of HepG2^control and HepG2^AKO cells was determined by a commercial kit (TG Infinity reagent, Thermo Fisher Scientific). […] Statistical significance was determined via Student’s t test (*p < 0.05; **p < 0.01; ***p < 0.001) or ANOVA followed by Bonferroni post hoc test (^#p < 0.05; ^##p < 0.01; ^###p < 0.001). […]
smiles,measurement,value
CCOc1ccc(-c2cc(OC)cc(C(=O)OC(C)C)n2)cc1 [NG-497],effect on respiration,no effect on respiration

# — publication PMC9011347, “Small-Molecule Inhibitors Targeting Lipolysis in Human Adipocytes” (Journal of the American Chemical Society, 2022)
